# Measured values: US10039839B2, “Compounds that participate in cooperative binding and uses thereof” (Warp Drive Bio, Inc., priority 2015, dated 2018)
# Square brackets hold non-standard residues; d marks the D form. Peptide text beside a SMILES is read from it. MeBmt = C/C=C/C[C@@H](C)[C@@H](O)[C@H](NC)C(=O)O; NMeY = CN[C@@H](Cc1ccc(O)cc1)C(=O)O; NMeF = CN[C@@H](Cc1ccccc1)C(=O)O; NMeI = CC[C@H](C)[C@H](NC)C(=O)O; NMeT = CN[C@H](C(=O)O)[C@@H](C)O; NMeL = CN[C@@H](CC(C)C)C(=O)O; Tle = CC(C)(C)[C@H](N)C(=O)O; NMeNva = CCC[C@H](NC)C(=O)O; NMeV = CN[C@H](C(=O)O)C(C)C; NMeA = CN[C@@H](C)C(=O)O; dNMeA = CN[C@H](C)C(=O)O; Abu = CC[C@H](N)C(=O)O; Sar = CNCC(=O)O
# Biological target: T1, Cyclophilin A (Homo sapiens, UniProt P62937)
# T1 construct: made in house
# T1 sequence (P62937 whole entry, species assumed): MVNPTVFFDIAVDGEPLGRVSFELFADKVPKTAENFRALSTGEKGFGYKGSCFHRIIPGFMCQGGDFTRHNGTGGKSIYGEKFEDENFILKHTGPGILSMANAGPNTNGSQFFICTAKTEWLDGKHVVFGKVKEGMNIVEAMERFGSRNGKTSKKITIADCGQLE
# Assay: biochemical
# Assay type: binding
# Settings: not given
# Description: This protocol utilizes Perkin Elmers AlphaLISA technology platform to detect cyclosporine analogues by measuring the inhibition of binding of biotinylated Cyclosporin A to FLAG tagged Cyclophilin A.
# Add 20 uL of 6 nM Biotinylated CsA working stock to each well of the 96-well plate. Add 1 uL of test compound (100% DMSO) to each well of the plate using the Janus MTD head and P20 tips (except control wells). Add 1 uL of DMSO to negative control wells and 1 uL of 500 uM Cyclosporin A solution to positive control wells. In the dark, add 20 uL of combined Donor/Acceptor beads to each well. Incubate in the dark for 30 minutes at room temperature. […] Incubate in the dark for 60 minutes at room temperature.
row,Structure (SMILES),% inhibition of CsA binding to Cyclophilin A
1,C/C=C/C[C@@H](C)[C@@H](O)[C@H]1C(=O)N[C@@H](CC)C(=O)N(C)CC(=O)N(C)[C@@H]([C@@H](C)CC)C(=O)N[C@@H](C(C)C)C(=O)N(C)CC(=O)N[C@@H](C)C(=O)N[C@H](C)C(=O)N(C)[C@@H](CC(C)C)C(=O)N(C)[C@@H](CC(C)C)C(=O)N(C)[C@@H](C(C)C)C(=O)N1C [C25] (cyclo([MeBmt][Abu][Sar][NMeI]V[Sar]A[dA][NMeL][NMeL][NMeV])),99.63%
2,C/C=C/C[C@@H](C)[C@@H](O)[C@H]1C(=O)N[C@@H](CC)C(=O)N(C)CC(=O)N(C)[C@H](C)C(=O)N[C@@H](C(C)C)C(=O)N(C)CC(=O)N[C@@H](C)C(=O)N[C@H](C)C(=O)N(C)[C@@H](CC(C)C)C(=O)N(C)[C@@H](CC(C)C)C(=O)N(C)[C@@H](C(C)C)C(=O)N1C [C27] (cyclo([MeBmt][Abu][Sar][dNMeA]V[Sar]A[dA][NMeL][NMeL][NMeV])),94.73%
3,C/C=C/C[C@@H](C)[C@@H](O)[C@H]1C(=O)N[C@@H](CC)C(=O)N(C)CC(=O)N(C)[C@@H](Cc2ccccc2)C(=O)N[C@@H](C(C)C)C(=O)N(C)CC(=O)N[C@@H](C)C(=O)N[C@H](C)C(=O)N(C)[C@@H](CC(C)C)C(=O)N(C)[C@@H](CC(C)C)C(=O)N(C)[C@@H](C(C)C)C(=O)N1C [C28] (cyclo([MeBmt][Abu][Sar][NMeF]V[Sar]A[dA][NMeL][NMeL][NMeV])),98.94%
4,C/C=C/C[C@@H](C)[C@@H](O)[C@H]1C(=O)N[C@@H](CC)C(=O)N(C)CC(=O)N(C)CC(=O)N[C@@H](C(C)C)C(=O)N(C)CC(=O)N[C@@H](C)C(=O)N[C@H](C)C(=O)N(C)[C@@H](CC(C)C)C(=O)N(C)[C@@H](CC(C)C)C(=O)N(C)[C@@H](C(C)C)C(=O)N1C [C29] (cyclo([MeBmt][Abu][Sar][Sar]V[Sar]A[dA][NMeL][NMeL][NMeV])),98.77%
5,C/C=C/C[C@@H](C)[C@@H](O)[C@H]1C(=O)N[C@@H](CC)C(=O)N(C)CC(=O)N(C)[C@H](C)C(=O)N[C@@H](C(C)C)C(=O)N(C)[C@@H](CC(C)C)C(=O)N[C@@H](CC(C)C)C(=O)N[C@H](C)C(=O)N(C)[C@@H](CC(C)C)C(=O)N(C)[C@@H](CC(C)C)C(=O)N(C)[C@@H](C(C)C)C(=O)N1C [C47] (cyclo([MeBmt][Abu][Sar][dNMeA]V[NMeL]L[dA][NMeL][NMeL][NMeV])),95.71%
6,C/C=C/C[C@@H](C)[C@@H](O)[C@H]1C(=O)N[C@@H](CC)C(=O)N(C)CC(=O)N(C)[C@@H]([C@@H](C)O)C(=O)N[C@@H](C(C)(C)C)C(=O)N(C)[C@@H](C)C(=O)N[C@@H](CC(C)C)C(=O)N[C@H](C)C(=O)N(C)[C@@H](CC(C)C)C(=O)N(C)[C@@H](CC(C)C)C(=O)N(C)[C@@H](C(C)C)C(=O)N1C [C75] (cyclo([MeBmt][Abu][Sar][NMeT][Tle][NMeA]L[dA][NMeL][NMeL][NMeV])),96.12%

# More lines, now with the values ahead:
row,% inhibition of CsA binding to Cyclophilin A,Structure (SMILES)
1,99.56%,C/C=C/C[C@@H](C)[C@@H](O)[C@H]1C(=O)N[C@@H](CC)C(=O)N(C)CC(=O)N(C)[C@@H](C(C)C)C(=O)N[C@@H](C(C)(C)C)C(=O)N(C)[C@@H](C)C(=O)N[C@@H](CC(C)C)C(=O)N[C@H](C)C(=O)N(C)[C@@H](CC(C)C)C(=O)N(C)[C@@H](CC(C)C)C(=O)N(C)[C@@H](C(C)C)C(=O)N1C [C77] (cyclo([MeBmt][Abu][Sar][NMeV][Tle][NMeA]L[dA][NMeL][NMeL][NMeV]))
2,99.35%,C/C=C/C[C@@H](C)[C@@H](O)[C@H]1C(=O)N[C@@H](CC)C(=O)N(C)CC(=O)N(C)[C@H](C)C(=O)N[C@@H](C(C)C)C(=O)N(C)[C@@H](C)C(=O)N[C@@H](CC(C)C)C(=O)N[C@H](C)C(=O)N(C)[C@@H](CC(C)C)C(=O)N(C)[C@@H](CC(C)C)C(=O)N(C)[C@@H](C(C)C)C(=O)N1C [C83] (cyclo([MeBmt][Abu][Sar][dNMeA]V[NMeA]L[dA][NMeL][NMeL][NMeV]))
3,95.72%,C/C=C/C[C@@H](C)[C@@H](O)[C@H]1C(=O)N[C@@H](CC)C(=O)N(C)CC(=O)N(C)[C@@H](Cc2ccc(O)cc2)C(=O)N[C@@H](C(C)C)C(=O)N(C)[C@@H](CC(C)C)C(=O)N[C@@H](CC)C(=O)N[C@H](C)C(=O)N(C)[C@@H](CC(C)C)C(=O)N(C)[C@@H](CC(C)C)C(=O)N(C)[C@@H](C(C)C)C(=O)N1C [C100] (cyclo([Abu][Sar][NMeY]V[NMeL][Abu][dA][NMeL][NMeL][NMeV][MeBmt]))
4,99.30%,C/C=C/C[C@@H](C)[C@@H](O)[C@H]1C(=O)N[C@@H](CC)C(=O)N(C)CC(=O)N(C)[C@@H](CCC)C(=O)N[C@@H](C(C)C)C(=O)N(C)[C@@H](CC(C)C)C(=O)N[C@@H](CC)C(=O)N[C@H](C)C(=O)N(C)[C@@H](CC(C)C)C(=O)N(C)[C@@H](CC(C)C)C(=O)N(C)[C@@H](C(C)C)C(=O)N1C [C102] (cyclo([Abu][Sar][NMeNva]V[NMeL][Abu][dA][NMeL][NMeL][NMeV][MeBmt]))

# Same assay, conditions: read-out: IC50 value of CsA binding to Cyclophilin A
row,IC50,Structure (SMILES)
1,< 2000 nM,C/C=C/C[C@@H](C)[C@@H](O)[C@H]1C(=O)N[C@@H](CC)C(=O)N(C)CC(=O)N(C)[C@H](C)C(=O)N[C@@H](C(C)C)C(=O)N(C)[C@@H](CC(C)C)C(=O)N[C@@H](CC(C)C)C(=O)N[C@H](C)C(=O)N(C)[C@@H](CC(C)C)C(=O)N(C)[C@@H](CC(C)C)C(=O)N(C)[C@@H](C(C)C)C(=O)N1C [C47] (cyclo([MeBmt][Abu][Sar][dNMeA]V[NMeL]L[dA][NMeL][NMeL][NMeV]))
